Results published in patent US8063077B2, “Factor Xa inhibitors” (Millennium Pharmaceuticals, Inc., priority 2006, dated 2011).

Experiments:
[1] = Pharmacokinetics of Compound 10 in rat (IV and PO), plasma and urine by LC/MS/MS; format: in vivo, male Sprague-Dawley rats; parameters: AUC/D (dose-normalized AUC(0-inf)): unit not given here; conditions: mean ± SD
Description: Compound 10 was used in the rat investigation. An intravenous (IV) and oral (PO) dose of Compound 10 (1.0 and 10 mg/kg, respectively) was prepared. The IV dose was solubilized in 50% PEG300 to yield a final concentration of 1.0 mg/mL with a final pH of 5.13. The PO dose was suspended in 0.5% methylcellulose at a concentration of 2.0 mg/mL with a final pH of 2.70.
A total of six male Sprague-Dawley rats (n=3/dosing group) from Charles River Laboratories (Hollister, Calif.), three male beagle dogs from Marshall BioResources (North Rose, N.Y.) and three male rhesus monkeys were utilized. All surgical procedures in rat (femoral and jugular vein catheterizations) were performed 8 days prior to utilization in the study and rats were acclimated in-house 5 days prior to utilization. Dogs were acclimated in-house at least seven days prior to utilization and were returned to the colony at the completion of the study. Monkey studies were conducted by an off-site contract laboratory.
All animals were fasted from the afternoon prior to study initiation to two hours post-dose (approximately 18 hours). Water was provided ad libitum. All animal rooms were on a 12 hour light-dark cycles (6 A.M. to 6 P.M.). On the morning of experimentation, animals were weighed. Rat femoral and jugular (IV only) vein blood lines were exteriorized and attached to access ports. […]
(§1) All animals were dosed based on individual weights with a PO gavage volume of 5.0 mL/kg and an IV bolus dose volume of 1.0 mL/kg. […] At collection times, urine volume and water consumption was recorded. […]
(§2) Plasma and urine samples were analyzed for Compound 10 concentration using a liquid chromatography tandem mass spectrometry (LC/MS/MS). […] The peak areas of the m/z 411→250 product ion (Compound 10) were measured against those of the m/z 470→342 product ion (N-(2-(5-chloropyridin-2-ylcarbaomoyl)-4-methoxyphenyl)-4-(N,N-dimethylcarbamimidoyl)-2-fluorobenzamide) in positive ion mode. […]
(§3) Sample Compound 10 concentrations below the lower limit of quantitation (LLQ) were reported as <0.500 ng/mL. […]

[2] = Pharmacokinetics of Compound 10 in monkey (IV and PO), plasma by LC/MS/MS; format: in vivo, male rhesus monkeys; parameters: AUC/D (dose-normalized AUC(0-inf)): unit not given here; conditions: mean ± SD
Description: (§4) For the dog and monkey study, Compound 10 was also used. An IV and PO dose of Compound 10 (1.0 and 5.0 mg/kg, respectively) was prepared. The IV dose was formulated similarly to that used in the rat study (50% PEG300 in water). The PO dose was suspended in 0.5% methylcellulose at a concentration of 1.0 mg/mL with a final pH of approximately 3.50.
(§5) A total of six male Sprague-Dawley rats (n=3/dosing group) from Charles River Laboratories (Hollister, Calif.), three male beagle dogs from Marshall BioResources (North Rose, N.Y.) and three male rhesus monkeys were utilized. […]
as §1, §2, §3

[3] = Pharmacokinetics of Compound 10 in dog (IV and PO), plasma by LC/MS/MS; format: in vivo, male beagle dogs; parameters: AUC/D (dose-normalized AUC(0-inf)): unit not given here; conditions: mean ± SD
Description: as §4, §5, §1, §2, §3

[4] = target: T1, human plasma protein factor Xa (Homo sapiens, UniProt P00742); experiment: Factor Xa IC50 determination, cleavage of paranitroanilide substrate S-2765; format: biochemical; conditions: factor Xa 1 nM, S2765 100 μM, Tris buffered saline pH 7.4, 5% DMSO
T1 construct: The human plasma protein factor Xa was purchased from Haematologic Technologies; purchased Haematologic Technologies (Essex Junction, Vt.); host or cells: human plasma
Text: This example illustrates methods for evaluating the compounds of the invention, along with results obtained for such assays. The in vitro and in vivo human Factor Xa activities of the inventive compounds can be determined by various procedures known in the art, such as a test for their ability to inhibit the activity of human plasma Factor Xa. […] The IC50 value is the concentration (in nM) of the compound required to provide 50% inhibition of human Factor Xa proteolytic activity.
An in vitro assay for detecting and measuring inhibition activity against Factor Xa is as follows:
The substrate S-2765 (Z-D-Arg-Gly-Arg-pNA•HCl) was obtained from Diapharma (West Chester, Ohio).
The human plasma protein factor Xa was purchased from Haematologic Technologies (Essex Junction, Vt.).
All assays, which are performed in 96-well microtiter plates, measure proteolytic activity of the enzyme (factor Xa) by following cleavage of a paranitroanilide peptide substrate. The assay buffer used for proteolytic assays was Tris buffered saline (20 mM Tris, 150 mM NaCl, 5 mM CaCl2, 0.1% Bovine serum albumin (BSA), 5% Dimethly Sulfoxide (DMSO) pH 7.4). In a 96-well microtiter plate, inhibitor was serially diluted to give a range of final concentrations from 0.01 nM to 10 μM. Duplicate sets of wells were assayed and control wells without inhibitor were included. Enzyme was added to each well, (factor Xa concentration=1 nM), the plate was shaken for 5 seconds and then incubated for 5 minutes at room temperature. S2765 was added (100 μM final) and the plate was shaken for 5 seconds (final volume in each well was 200 μl). The degree of substrate hydrolysis was measured at 405 nm on a Thermomax plate reader (Molecular Devices, Sunnyvale, Calif.) for 2 minutes. The initial velocities of substrate cleavage (mOD/min), for each range of inhibitor concentrations, were fitted to a four parameter equation using Softmax data analysis software. The parameter C, derived from the resulting curve-fit, corresponded to the concentration for half maximal inhibition (IC50).

T1 sequence (P00742 235-488 limits assumed): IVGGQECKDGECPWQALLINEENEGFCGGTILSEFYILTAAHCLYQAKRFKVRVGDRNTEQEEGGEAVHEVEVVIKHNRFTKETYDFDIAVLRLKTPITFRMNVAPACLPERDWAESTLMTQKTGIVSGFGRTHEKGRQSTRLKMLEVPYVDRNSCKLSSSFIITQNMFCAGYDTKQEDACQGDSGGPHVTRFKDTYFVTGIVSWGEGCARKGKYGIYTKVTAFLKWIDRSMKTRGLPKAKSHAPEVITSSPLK
T1 sequence (P00742 41-179 partner limits assumed): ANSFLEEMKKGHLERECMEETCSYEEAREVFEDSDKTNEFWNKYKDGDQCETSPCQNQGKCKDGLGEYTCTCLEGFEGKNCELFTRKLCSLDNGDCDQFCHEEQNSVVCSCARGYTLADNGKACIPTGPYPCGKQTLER

| Dose excreted unchanged in urine ([1]; intravenous, 1 mg/kg, urine to 24 hours post-dose) [%] | bioavailability ([1]; male, Sprague-Dawley, plasma, oral 10 mg/kg vs intravenous 1 mg/kg, read-out: F (absolute bioavailability)) [%] | AUC/D (dose-normalized AUC(0-inf)) ([1]; oral, 10 mg/kg, n=3) | bioavailability ([2]; male, rhesus, rhesus monkey, plasma, oral 5 mg/kg vs intravenous 1 mg/kg, read-out: F (absolute bioavailability)) [%] | AUC/D (dose-normalized AUC(0-inf)) ([2]; oral, 5 mg/kg, n=3) | bioavailability ([3]; male, beagle, plasma, oral 5 mg/kg vs intravenous 1 mg/kg, read-out: F (absolute bioavailability)) [%] | AUC/D (dose-normalized AUC(0-inf)) ([3]; oral, 5 mg/kg, n=3) | IC50 [4] [nM] | SMILES |
| --- | --- | --- | --- | --- | --- | --- | --- | --- |
| 0.248 ± 0.019 | 127 ± 23.1 | 6859 ± 1249 | 71.6 ± 18.1 | 8430 ± 3449 | 68.5 ± 15.5 | 1095 ± 295 | ≤ 100 | O=C(NCc1cn(-c2ccc(-n3ccccc3=O)cc2)cn1)c1ccc(Cl)s1 [Compound 10, 5-Chloro-N-((1-(4-(2-oxopyridin-1(2H)-yl)phenyl)-1H-imidazol-4-yl)methyl)thiophene-2-carboxamide] |
| – | – | – | – | – | – | – | ≤ 100 | Cc1ccc(=O)n(-c2ccc(-n3cnc(CNC(=O)c4ccc(Cl)s4)c3)cc2)c1 [Compound 45, 5-chloro-N-((1-(4-(5-methyl-2-oxopyridin-1(2H)-yl)phenyl)-1H-imidazol-4-yl)methyl)thiophene-2-carboxamide] |
